The record followed here is PMC4827351 (Chemical Science, 2015).

One test concerns E. coli Nissle. Kind of test: SEM analysis of bacterial agglutination. Format: cell-based, Escherichia coli. The conditions noted are these: 3 µM proHD6 treated with trypsin before incubation (trypsin inactivated with APMSF), 30 min, 50 mM Tris-maleate pH 6.4. How it is done:
Bacteria were grown aerobically at 37 °C overnight in LB media. The next morning the strains were subcultured and grown to mid-logarithmic phase in LB media. An aliquot of the bacteria (0.5–2 × 10^7 CFU mL^–1) was removed, sedimented by centrifugation (7000g × 2 min, 4 °C), washed twice with 50 mM Tris-maleate buffer, pH 6.4, and then resuspended in 0.5 mL of the 50 mM Tris-maleate buffer. The bacterial suspension was incubated at room temperature for 30 min with buffer control, 0.4 μM APMSF-inactivated trypsin, 3 μM proHD6, 3 μM trypsin-cleaved proHD6, or 3 μM HD6. Trypsin-cleaved proHD6 was prepared by incubating 30 μM proHD6 with 4 μM trypsin (Affimetrix, Santa Clara, CA) for 1 h at room temperature in 50 mM Tris-maleate buffer, pH 6.4. At the end of incubation, the trypsin was inactivated by addition of APMSF (p-amidinophenylmethylsulfonylfluoride HCl, Millipore, 25 μg mL^–1), and the mixture was added to the bacterial suspension. The APMSF-inactivated trypsin was similarly prepared, except that proHD6 was omitted from the preincubation. After a 30 min incubation, the treated bacterial suspensions were sedimented by centrifugation (7000g × 5 min, 4 °C), and the buffer supernatant was carefully removed. […]

Test [1] has as its system L. monocytogenes ATCC 19115 invasion of human T84 colon epithelial cells. The test can be described thus: Listeria invasion assay. In kind it is cell-based, Listeria monocytogenes. The conditions noted are these: proHD6 ≤10 µM, no trypsin, bacteria pre-incubated with peptide 30 min at room temperature, n = 3. Here is the method:
Fig. 5 Listeria invasion assays for native and cleaved proHD6. Invasion of human T84 colon epithelial cells by L. monocytogenes ATCC 19115 pre-treated with proHD6 in the absence and presence of 0.4 μM trypsin or HD6 (control). The bacteria (2 × 10^6 CFU mL^–1) were incubated with the indicated peptides for 30 min prior to the infection of the T84 cells (mean ± SDM, n = 3).
Concentrated (20×, 10 μL) solutions of HD6 and proHD6 were prepared in sterile Milli-Q water (0, 50, 100, and 200 μM). For conditions that required trypsin, a 1 mg mL^–1 stock solution of TPCK-treated trypsin (Worthington) in sterile Milli-Q water was added to the 20× proHD6 solutions to yield a final trypsin concentration of 0.01 mg mL^–1. A 190 μL aliquot of the diluted bacterial culture was added to each […] peptide solution and the resulting mixtures were incubated at room temperature for 30 min. The invasion assays were then performed by following a literature protocol.[15],[50] All invasion assays were conducted with at least two independently prepared and purified samples of each peptide and in three independent trials and the resulting averages with standard deviations are reported.

Another test deals with E. coli ATCC 25922. The test can be described thus: Cuvette-based bacterial agglutination assay. Format: cell-based, Escherichia coli. The conditions noted are these: n = 3. The source says: We previously reported a simple cuvette-based in vitro agglutination assay that enables time-dependent monitoring of agglutination of viable bacteria by HD6.[15] We employed this assay to further characterize the trypsin-dependent activity of proHD6 on cultured bacterial cells (Fig. 4a and b). […] In these assays, we defined the “supernatant” as the culture solution in the top portion of the cuvette and the “re-suspension” as the mixture that results from agitating the entire culture after the 6 h incubation period.[15] We observed an ≈1.5-fold log reduction in CFU mL^–1 for the “supernatant” from cultures treated with combination of trypsin and proHD6 relative to the no-peptide control (Fig. 4c). Following “re-suspension”, the total CFU mL^–1 in the cuvette was indistinguishable from that of either the untreated control culture or the bacterial culture treated with proHD6.
Fig. 4 Bacterial agglutination assays for native and cleaved proHD6. (a) Agglutination of E. coli ATCC 25922 and L. monocytogenes ATCC 19115 in 50% MHB treated with proHD6 in the absence and presence of 0.4 μM trypsin or HD6 (control). (b) Representative images of cuvettes containing E. coli ATCC 25922 or L. monocytogenes ATCC 19115 after incubation with 20 μM peptides for 2 h at room temperature. (c) Plots of colony forming units (CFU mL^–1) of E. coli ATCC 25922 and L. monocytogenes ATCC 19115 after treatment with 20 μM peptides for 6 h (mean ± SDM, n = 3). Supernatant is defined as the clarified medium solution in the top portion of the culture and resuspension is defined as the mixture after thoroughly agitating the heterogeneous solution.
Stock solutions (50 μL) of HD6 and proHD6 (0, 50, 100, and 200 μM; 10× concentrations) were prepared in sterile Milli-Q water. If trypsin was required, aliquots of a 1 mg mL^–1 stock solution of TPCK-treated trypsin (Worthington) prepared in sterile Milli-Q water were added to solutions of proHD6 to afford a final trypsin concentration of 0.01 mg mL^–1. The assays were then conducted following the reported procedure.[15] […]

Consider “EPLQAEDDPLQAKAYEADAQEQRGANDQDFAVSFAEDASSSLRALGSTRAFTCHCRRSCYSTEYSYGTCTVMGINHRFCCL (disulfide (positions not given here)) [proHD6, 81-residue propeptide of human α-defensin 6, recombinant, from His6-SUMO-proHD6]”, for which the “bacterial agglutination (SEM), trypsin-cleaved” value in the test on E. coli Nissle is “entangled and agglutinated E. coli”. In addition, the “L. monocytogenes invasion into human intestinal epithelial cells” value in test [1] is on record as “did not impair”. Moreover, the “total CFU mL^-1 after re-suspension versus untreated control culture or culture treated with proHD6” value in the test with E. coli ATCC 25922 (20 µM proHD6 + trypsin, 6 h, entire culture agitated) is listed as “indistinguishable”. In addition, in the test with E. coli ATCC 25922 (proHD6 + 0.4 µM (0.01 mg/mL) trypsin, 10^8 CFU mL^-1, 50% MHB, room temperature), the “agglutination of bacterial culture in cuvette, with trypsin” value is “bacterial agglutination and sedimentation occurred”. The “agglutination of bacterial culture in cuvette” value in the test on E. coli ATCC 25922 (proHD6 up to 20 µM, no trypsin, 10^8 CFU mL^-1, 50% MHB, 6 h, room temperature) is listed as “remained homogeneous”.
